Measured values reported in patent US5567692A, “9-[(substituted glycyl) amido)]-6-demethyl-6-deoxytetracyclines” (priority 1995, dated 1996).
Values after ≈ are worked out from the molar mass of the structure shown. Where a name gives a salt, the structure may show the parent alone. Read-outs that look alike come from different tables or passages of the source.

Legend:
Format in all cases: cell-based
E. coli UBMS 88-1 Tet B = assay: microbe, parasite or virus in culture; details: Escherichia coli, UBMS881TETB, 18 h
[1] = tested on: E. coli MC 4100 Tet sens.; assay: MIC, agar dilution; details: Escherichia coli, 18 h
E. coli PRP1 Tet A = assay: microbe, parasite or virus in culture; details: Escherichia coli, PRP1TETA, 18 h
[2] = tested on: E. coli MC 4100 TNIOC Tet B; assay: microbe, parasite or virus in culture; details: Escherichia coli, 18 h
E. coli J3272 Tet C = assay: microbe, parasite or virus in culture; details: Escherichia coli, J3272TETC, 18 h
E. coli UBMS 89-1 Tet M = assay: microbe, parasite or virus in culture; details: Escherichia coli, UBMS891TETM, 18 h
[3] = tested on: E. coli UBMS 89-2 Tet sens.; assay: MIC, agar dilution; details: Escherichia coli, 18 h
E. coli J2175 = assay: MIC, agar dilution; details: Escherichia coli, 18 h, read-out: MIC
E. coli BAJ9003 IMP MUT = assay: microbe, parasite or virus in culture; details: Escherichia coli, BAJ9003IMPMUT, 18 h
E. coli UBMS 90-4 Tet M = assay: microbe, parasite or virus in culture; details: Escherichia coli, UBMS904TETM, 18 h
E. coli UBMS 90-5 = assay: microbe, parasite or virus in culture; details: Escherichia coli, UBMS905, 18 h, E. coli UBMS 90-5; read-out: MIC
E. coli #311 (MP) = assay: MIC, agar dilution; details: Escherichia coli, 18 h
E. coli ATCC 25922 = assay: MIC, agar dilution; details: Escherichia coli, ATCC25922, 18 h
E. coli J3272 Tet D = assay: microbe, parasite or virus in culture; details: Escherichia coli, J3272TETD, 18 h
S. marcescens FPOR 8733 = assay: MIC, agar dilution; details: Serratia marcescens, FPOR8733, 18 h
[4] = tested on: X. maltophilia NEMC 87210; assay: MIC, agar dilution; details: Stenotrophomonas maltophilia, NEMC87210, 18 h
[5] = tested on: Ps. aeruginosa ATCC 27853; assay: MIC, agar dilution; details: Pseudomonas aeruginosa, ATCC27853, 18 h
S. aureus NEMC 8769 = assay: MIC, agar dilution; details: Staphylococcus aureus, NEMC8769, 18 h
S. aureus UBMS 88-4 = assay: MIC, agar dilution; details: Staphylococcus aureus, UBMS884, 18 h
[6] = tested on: S. aureus UBMS 88-5 Tet M; assay: microbe, parasite or virus in culture; details: Staphylococcus aureus, UBMS885TETM, 18 h
[7] = tested on: S. aureus UBMS 88-7 Tet K; assay: microbe, parasite or virus in culture; details: Staphylococcus aureus, UBMS887TETK, 18 h
[8] = tested on: S. aureus UBMS 90-1 Tet M; assay: microbe, parasite or virus in culture; details: Staphylococcus aureus, UBMS901TETM, 18 h
S. aureus UBMS 90-3 = assay: MIC, agar dilution; details: Staphylococcus aureus, UBMS903, 18 h
[9] = tested on: S. aureus UBMS 90-2 Tet M; assay: microbe, parasite or virus in culture; details: Staphylococcus aureus, UBMS902TETM, 18 h
S. aureus IVES 2943 = assay: MIC, agar dilution; details: Staphylococcus aureus, IVES2943, 18 h
S. aureus ROSE (MP) = assay: MIC, agar dilution; details: Staphylococcus aureus, 18 h
S. aureus SMITH (MP) = assay: MIC, agar dilution; details: Staphylococcus aureus, 18 h
S. aureus IVES 1983 = assay: MIC, agar dilution; details: Staphylococcus aureus, IVES1983, 18 h
S. aureus ATCC 29213 = assay: MIC, agar dilution; details: Staphylococcus aureus, ATCC29213, 18 h, S. aureus ATCC 29213
[10] = tested on: S. hemolyticus AVHAH 88-3; assay: MIC, agar dilution; details: Streptococcus pyogenes, AVHAH883, 18 h
Enterococcus 12201 = assay: MIC, agar dilution; details: Enterococcus, 12201, 18 h
E. faecalis ATCC 29212 = assay: MIC, agar dilution; details: Enterococcus faecalis, ATCC29212, 18 h
[11] = Ps. aeruginosa ATCC 27853, read-out: MIC
[12] = S. aureus UBMS 90-3, read-out: MIC
[13] = E. faecalis ATCC 29212, read-out: MIC
[14] = S. aureus SMITH (MP), read-out: MIC
[15] = Enterococcus 12201, read-out: MIC
[16] = S. hemolyticus AVHAH 88-3, read-out: MIC

Compound | MIC (E. coli UBMS 88-1 Tet B) [µg/mL] | MIC [1] [µg/mL] | MIC (E. coli PRP1 Tet A) [µg/mL] | MIC [2] [µg/mL] | MIC (E. coli J3272 Tet C) [µg/mL] | MIC (E. coli UBMS 89-1 Tet M) [µg/mL] | MIC [3] [µg/mL] | MIC (E. coli J2175) [µg/mL] | MIC (E. coli BAJ9003 IMP MUT) [µg/mL] | MIC (E. coli UBMS 90-4 Tet M) [µg/mL] | MIC (E. coli UBMS 90-5) [µg/mL] | MIC (E. coli #311 (MP)) [µg/mL] | MIC (E. coli ATCC 25922) [µg/mL] | MIC (E. coli J3272 Tet D) [µg/mL] | MIC [4] [µg/mL] | MIC (S. aureus UBMS 88-4) [µg/mL] | MIC [6] [µg/mL] | MIC [7] [µg/mL] | MIC [8] [µg/mL] | MIC [9] [µg/mL] | further results
CC(C(=O)Nc1ccc2c(c1O)C(=O)C1=C(O)[C@]3(O)C(=O)C(C(N)=O)=C(O)[C@@H](N(C)C)C3CC1C2)N(C)C (stereo partly drawn) [B, [4S-(4alpha,12aalpha)]-4-(Dimethylamino)-9-[[2-(dimethylamino)-1-oxopropyl]amino]-1,4,4a,5,5a,6,11,12a-octahydro-3,10,12,12a-tetrahydroxy-1,11-dioxo-2-naphthacenecarboxamide dihydrochloride] | 1 | 0.25 | 2 | 0.5 | 1 | 0.5 | 1 | 1 | 0.25 | 0.5 | 0.5 | 0.5 | 0.5 | 0.5 | 2 | 0.25 | 0.5 | 1 | 0.5 | 0.25 | MIC (S. marcescens FPOR 8733): 8 µg/mL; MIC [5, 11]: 32 µg/mL; MIC (S. aureus NEMC 8769; read-out: MIC): 0.06 µg/mL; MIC (S. aureus UBMS 90-3; [12]): 0.06 µg/mL; MIC (S. aureus IVES 2943; S. aureus IVES 2943, read-out: MIC): 1 µg/mL; MIC (S. aureus ROSE (MP)): 4 µg/mL; MIC (S. aureus SMITH (MP)): 0.25 µg/mL; MIC (S. aureus IVES 1983; S. aureus IVES 1983, read-out: MIC): 1 µg/mL; MIC (S. aureus ATCC 29213; read-out: MIC): 0.25 µg/mL; MIC [10]: 1 µg/mL; MIC (Enterococcus 12201): 0.25 µg/mL; MIC (E. faecalis ATCC 29212; [13]): 0.25 µg/mL
CCNCC(=O)Nc1ccc2c(c1O)C(=O)C1=C(O)[C@]3(O)C(=O)C(C(N)=O)=C(O)[C@@H](N(C)C)C3CC1C2 (stereo partly drawn) [E, [4S-(4alpha,12aalpha)]-4-(Dimethylamino)-9-[[(ethylamino)acetyl]amino]-1,4,4a,5,5a,6,11,12a-octahydro-3,10,12,12a-tetrahydroxy-1,11-dioxo-2-naphthacenecarboxamide dihydrochloride] | 0.5 | 0.25 | 2 | 1 | 1 | 0.25 | 0.5 | 0.5 | 0.12 | 0.25 | 0.5 | 0.5 |  | 0.25 | 8 | 0.5 | 0.5 | 8 | 0.5 |  | MIC (E. coli ATCC 25922; read-out: MIC): 0.25 µg/mL; MIC (S. marcescens FPOR 8733; read-out: MIC): 4 µg/mL; MIC [5]: 16 µg/mL; MIC (S. aureus NEMC 8769): 0.12 µg/mL; MIC (S. aureus UBMS 90-3; S. aureus UBMS 90-3): 0.12 µg/mL; MIC ([9]; S. aureus UBMS 90-2 Tet M): 0.12 µg/mL; MIC (S. aureus IVES 2943): 16 µg/mL; MIC (S. aureus ROSE (MP)): > 32 µg/mL; MIC (S. aureus SMITH (MP); [14]): 0.25 µg/mL; MIC (S. aureus IVES 1983): 8 µg/mL; MIC (S. aureus ATCC 29213): 0.5 µg/mL; MIC [10]: 1 µg/mL; MIC (Enterococcus 12201; [15]): 0.25 µg/mL; MIC (E. faecalis ATCC 29212): 0.25 µg/mL
CN(C)CC(=O)Nc1ccc2c(c1O)C(=O)C1=C(O)[C@]3(O)C(=O)C(C(=O)NCN4CCCC4)=C(O)[C@@H](N(C)C)C3CC1C2 (stereo partly drawn) [EE, [4S-(4alpha,12aalpha)]-4-(Dimethylamino)-9-[[(dimethylamino)acetyl]amino]-1,4,4a,5,5a,6,11,12a-octahydro-3,10,12,12a-tetrahydroxy-1,11-dioxo-N-(l-pyrrolidinylmethyl)-2-naphthacenecarboxamide] | 0.5 (≈ 0.837 µM) | 0.12 (≈ 0.201 µM) | 2 (≈ 3.35 µM) | 0.5 (≈ 0.837 µM) | 1 (≈ 1.67 µM) | 0.25 (≈ 0.418 µM) | 0.5 (≈ 0.837 µM) | 0.5 (≈ 0.837 µM) | 0.12 (≈ 0.201 µM) | 0.25 (≈ 0.418 µM) | 0.25 (≈ 0.418 µM) | 0.5 (≈ 0.837 µM) | 0.25 (≈ 0.418 µM) | 0.25 (≈ 0.418 µM) |  | 0.25 (≈ 0.418 µM) | 0.25 (≈ 0.418 µM) | 1 (≈ 1.67 µM) | 0.25 (≈ 0.418 µM) | 0.25 (≈ 0.418 µM) | MIC (S. marcescens FPOR 8733; read-out: MIC): 4 µg/mL (≈ 6.69 µM); MIC ([4]; X. maltophilia NEMC 87210, read-out: MIC): 2 µg/mL (≈ 3.35 µM); MIC [5, 11]: 16 µg/mL (≈ 26.8 µM); MIC (S. aureus NEMC 8769; read-out: MIC): 0.25 µg/mL (≈ 0.418 µM); MIC (S. aureus UBMS 90-3; S. aureus UBMS 90-3): 0.12 µg/mL (≈ 0.201 µM); MIC (S. aureus IVES 2943): 2 µg/mL (≈ 3.35 µM); MIC (S. aureus ROSE (MP)): 8 µg/mL (≈ 13.4 µM); MIC (S. aureus SMITH (MP); [14]): 0.25 µg/mL (≈ 0.418 µM); MIC (S. aureus IVES 1983): 2 µg/mL (≈ 3.35 µM); MIC (S. aureus ATCC 29213; read-out: MIC): 0.25 µg/mL (≈ 0.418 µM); MIC [10, 16]: 0.5 µg/mL (≈ 0.837 µM); MIC (Enterococcus 12201; [15]): 0.25 µg/mL (≈ 0.418 µM); MIC (E. faecalis ATCC 29212; [13]): 0.12 µg/mL (≈ 0.201 µM)
CN(C)[C@@H]1C(O)=C(C(N)=O)C(=O)[C@@]2(O)C(O)=C3C(=O)c4c(ccc(NC(=O)CN5CCCCC5)c4O)CC3CC12 (stereo partly drawn) [I, [7S-(7alpha,10aalpha)]-N-9-(Aminocarbonyl)-7-(dimethylamino)-5,5a,6,6a,7,10,10a,12-octahydro-1,8,10a,11-tetrahydroxy-10,12-dioxo-1-piperidineacetamide dihydrochloride] | 1 | 0.25 | 1 | 1 | 1 | 0.25 | 0.5 | 0.5 | 0.12 | 0.5 | 0.5 | 0.5 | 0.5 | 0.5 | 0.5 | 0.5 | 0.5 | 0.5 | 0.5 | 0.25 | MIC (S. marcescens FPOR 8733): 8 µg/mL; MIC [5, 11]: > 32 µg/mL; MIC (S. aureus NEMC 8769; read-out: MIC): 0.5 µg/mL; MIC (S. aureus UBMS 90-3): 0.25 µg/mL; MIC (S. aureus IVES 2943): 1 µg/mL; MIC (S. aureus ROSE (MP); read-out: MIC): 4 µg/mL; MIC (S. aureus SMITH (MP)): 0.25 µg/mL; MIC (S. aureus IVES 1983): 1 µg/mL; MIC (S. aureus ATCC 29213; read-out: MIC): 0.5 µg/mL; MIC [10, 16]: 2 µg/mL; MIC (Enterococcus 12201): 0.25 µg/mL; MIC (E. faecalis ATCC 29212; [13]): 0.25 µg/mL
CN(C)[C@@H]1C(O)=C(C(N)=O)C(=O)[C@@]2(O)C(O)=C3C(=O)c4c(ccc(NC(=O)CNCc5ccccn5)c4O)CC3CC12 (stereo partly drawn) [N, [4S-(4alpha,12aalpha)]-4-(Dimethylamino)-1,4,4a,5,5a,6,11,12a-octahydro-3,10,12,12a-tetrahydroxy-1,11-dioxo-9-[[[(2-pyridinylmethyl]amino]acetyl]amino]-2-naphthacenecarboxamide dihydrochloride] | > 32 | 8 | 32 | 32 | > 32 | 16 | 32 | > 32 | 2 | 16 | 32 | 32 | 32 | 32 | > 32 | 8 | 8 | > 32 | 8 | 8 | MIC (S. marcescens FPOR 8733): > 32 µg/mL; MIC [5]: > 32 µg/mL; MIC (S. aureus NEMC 8769): 8 µg/mL; MIC (S. aureus UBMS 90-3; [12]): 4 µg/mL; MIC (S. aureus IVES 2943): > 32 µg/mL; MIC (S. aureus ROSE (MP)): > 32 µg/mL; MIC (S. aureus SMITH (MP); [14]): 4 µg/mL; MIC (S. aureus IVES 1983): > 32 µg/mL; MIC (S. aureus ATCC 29213): 8 µg/mL; MIC [10]: > 32 µg/mL; MIC (Enterococcus 12201): 8 µg/mL; MIC (E. faecalis ATCC 29212; [13]): 4 µg/mL
